Values after ≈ are worked out from the molar mass of the structure shown.
Assays:
[1] = target: T1, A. baumannii PBP1a (Acinetobacter baumannii, UniProt A0ABX6CK30); test: Bocillin-FL competition binding via gel filtration, A. baumannii PBP1a; conditions: competition binding assay using Bocillin-FL via gel filtration; read-out: A. baumannii PBP1a Potency
T1 sequence (A0ABX6CK30 1-851): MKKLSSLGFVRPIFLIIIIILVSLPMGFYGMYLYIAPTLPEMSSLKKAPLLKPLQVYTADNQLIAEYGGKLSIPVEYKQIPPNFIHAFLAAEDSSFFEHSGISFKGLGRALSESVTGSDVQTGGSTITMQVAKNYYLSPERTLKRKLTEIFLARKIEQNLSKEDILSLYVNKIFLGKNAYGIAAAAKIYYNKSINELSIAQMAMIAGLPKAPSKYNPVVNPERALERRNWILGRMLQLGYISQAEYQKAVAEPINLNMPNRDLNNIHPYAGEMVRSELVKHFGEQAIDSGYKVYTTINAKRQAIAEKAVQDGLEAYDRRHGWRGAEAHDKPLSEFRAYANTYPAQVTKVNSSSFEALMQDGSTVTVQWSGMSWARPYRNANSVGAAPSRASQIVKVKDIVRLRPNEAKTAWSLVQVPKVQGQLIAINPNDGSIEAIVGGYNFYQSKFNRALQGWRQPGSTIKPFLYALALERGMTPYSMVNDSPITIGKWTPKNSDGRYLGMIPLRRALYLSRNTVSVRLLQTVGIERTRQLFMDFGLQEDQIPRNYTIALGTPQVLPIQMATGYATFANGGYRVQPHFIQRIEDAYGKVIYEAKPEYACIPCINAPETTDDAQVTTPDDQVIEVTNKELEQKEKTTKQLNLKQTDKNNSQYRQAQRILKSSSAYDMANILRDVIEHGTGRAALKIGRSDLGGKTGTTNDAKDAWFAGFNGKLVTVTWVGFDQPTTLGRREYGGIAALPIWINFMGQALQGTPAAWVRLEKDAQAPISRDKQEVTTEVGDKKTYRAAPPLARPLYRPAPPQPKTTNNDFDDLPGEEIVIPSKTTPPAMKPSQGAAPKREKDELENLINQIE
Outline: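 Enzyme was pre-incubated with rising inhibitor concentrations, then Bocillin-FL was added and incubated 15 minutes more. Bound probe was separated by gel filtration and fluorescence read. EC50 came from fitting fraction of PBP labelled versus inhibitor concentration to a Hill equation with ymin, ymax and n.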

[2] = system: A. baumannii ATCC 17978; test: microbe, parasite or virus in culture; type: cell-based; conditions: Acinetobacter baumannii, ATCC17978, read-out: MIC, A. baumannii ATCC 17978
[3] = system: P. aeruginosa (ΔmexAB-oprM); test: Broth microdilution MIC in iron-depleted CAMHB (IDM); type: cell-based; conditions: Pseudomonas aeruginosa; iron-depleted CAMHB (IDM); […]; read-out: Minimum inhibitory concentration, P. aeruginosa ΔmexAB-oprM
[4] = system: A. baumannii 1258916; test: microbe, parasite or virus in culture; type: cell-based, Acinetobacter baumannii; conditions: Acinetobacter baumannii, 1258916, read-out: MIC, A. baumannii 1258916
[5] = system: A. baumannii CDC-0036; test: microbe, parasite or virus in culture; type: cell-based; conditions: Acinetobacter baumannii, CDC0036, read-out: MIC, A. baumannii CDC-0036
[6] = system: B. thailandensis ATCC 700388; test: microbe, parasite or virus in culture; type: cell-based; conditions: Burkholderia thailandensis, ATCC700388, read-out: Minimum inhibitory concentration (MIC), B. thailandensis ATCC 700388
[7] = system: P. aeruginosa CDC-0054; test: microbe, parasite or virus in culture; type: cell-based; conditions: Pseudomonas aeruginosa, CDC0054, read-out: Minimum inhibitory concentration, P. aeruginosa CDC-0054

In the case of `O=C(NCCCN1CCN(C(=O)NC(C(=O)N[C@H]2Cc3ccc(F)c(C(=O)O)c3OB2O)c2cc(F)c(O)c(O)c2Cl)C(=O)C1=O)c1ccc(O)c(Cl)c1` (stereo partly drawn) [Example 305, (3R)-3-(2-(4-(3-(3-chloro-4-hydroxybenzamido)propyl)-2,3-dioxopiperazine-1-carboxamido)-2-(2-chloro-5-fluoro-3,4-dihydroxyphenyl)acetamido)-7-fluoro-2-hydroxy-3,4-dihydro-2H-benzo[e][1,2]oxaborinine-8-carboxylic acid], the EC50 [1] is reported as less than 10 µM, the MIC [2] is reported as less than 1 µg/mL and the MIC [3] is reported as less than 1 µg/mL. For the same molecule, the MIC [4] was less than 1 µg/mL, the MIC [5] was 2 to 4 µg/mL (≈ 2.52 to 5.04 µM) and the MIC [6] was 2 to 4 µg/mL (≈ 2.52 to 5.04 µM). For the same molecule, the MIC [7] was 2 to 4 µg/mL (≈ 2.52 to 5.04 µM).

For `O=C(NCCCN1CCN(C(=O)NC(C(=O)N[C@H]2Cc3ccc(F)c(C(=O)O)c3OB2O)c2cc(F)c(O)c(O)c2Cl)C(=O)C1=O)c1ccc(O)c(F)c1Cl` (stereo partly drawn) [Example 418, (3R)-3-(2-(4-(3-(2-chloro-3-fluoro-4-hydroxybenzamido)propyl)-2,3-dioxopiperazine-1-carboxamido)-2-(2-chloro-5-fluoro-3,4-dihydroxyphenyl)acetamido)-7-fluoro-2-hydroxy-3,4-dihydro-2H-benzo[e][1,2]oxaborinine-8-carboxylic acid], the EC50 [1] was less than 10 µM, the MIC [2] was less than 1 µg/mL and the MIC [3] was less than 1 µg/mL. It also gave an MIC [4] of 2 to 4 µg/mL (≈ 2.46 to 4.92 µM), an MIC [5] of 2 to 4 µg/mL (≈ 2.46 to 4.92 µM) and an MIC [6] of less than 1 µg/mL. For the same molecule, the MIC [7] was less than 1 µg/mL.

Molecule `O=C(NCCCN1CCN(C(=O)NC(C(=O)N[C@H]2Cc3ccc(F)c(C(=O)O)c3OB2O)c2cc(F)c(O)c(O)c2Cl)C(=O)C1=O)c1cccc(O)c1F` (stereo partly drawn) [Example 406, (3R)-3-(2-(2-chloro-5-fluoro-3,4-dihydroxyphenyl)-2-(4.-(3-(2-fluoro-3-hydroxybenzamido)propyl)-2,3-dioxopiperazine-1-carboxamido)acetamido)-7-fluoro-2-hydroxy-3,4-dihydro-2H-benzo[e][1,2]oxaborinine-8-carboxylic acid] has an EC50 [1] of less than 10 µM, an MIC [2] of less than 1 µg/mL and an MIC [3] of less than 1 µg/mL. It also gave an MIC [4] of 2 to 4 µg/mL (≈ 2.57 to 5.14 µM), an MIC [5] of 2 to 4 µg/mL (≈ 2.57 to 5.14 µM) and an MIC [6] of 2 to 4 µg/mL (≈ 2.57 to 5.14 µM). The MIC [7] was less than 1 µg/mL.

Work on `O=C(O)c1c(F)ccc2c1OB(O)[C@@H](NC(=O)C(NC(=O)N1CCN(C3CCN(C(=O)c4cc(O)cc(O)c4)CC3)C(=O)C1=O)c1cc(F)c(O)c(O)c1Cl)C2` (stereo partly drawn) [Example 309, (3R)-3-(2-(2-chloro-5-fluoro-3,4-dihydroxyphenyl)-2-(4-(1-(3,5-dihydroxybenzoyl)piperidin-4-yl)-2,3-dioxopiperazine-1-carboxamido)acetamido)-7-fluoro-2-hydroxy-3,4-dihydro-2H-benzo[e][1,2]oxaborinine-8-carboxylic acid] yielded an EC50 [1] of 10 to 50 µM, an MIC [2] of less than 1 µg/mL and an MIC [3] of less than 1 µg/mL. The MIC [4] was less than 1 µg/mL, the MIC [5] was less than 1 µg/mL and the MIC [6] was less than 1 µg/mL. The MIC [7] was less than 1 µg/mL.

`O=C(NCCCN1CCN(C(=O)NC(C(=O)N[C@H]2Cc3ccc(F)c(C(=O)O)c3OB2O)c2cc(F)c(O)c(O)c2Cl)C(=O)C1=O)c1cc(O)c(F)c(O)c1` (stereo partly drawn) [Example 416, (3R)-3-(2-(2-chloro-5-fluoro-3,4-dihydroxyphenyl)-2-(4-(3-(4-fluoro-3,5-dihydroxybenzamido)propyl)-2,3-dioxopiperazine-1-carboxamido)acetamido)-7-fluoro-2-hydroxy-3,4-dihydro-2H-benzo[e][1,2]oxaborinine-8-carboxylic acid] was tested, and the EC50 [1] was less than 10 µM, the MIC [2] was less than 1 µg/mL and the MIC [3] was less than 1 µg/mL. It also gave an MIC [4] of less than 1 µg/mL, an MIC [5] of 2 to 4 µg/mL (≈ 2.52 to 5.04 µM) and an MIC [6] of less than 1 µg/mL. For the same molecule, the MIC [7] was less than 1 µg/mL.
